# Legend:
# [1] = system: PDGFRα; design: method as in PMID 26501955; settings: cited from earlier work
# [2] = system: 17 different cancer and normal cell lines; experiment: cell growth, deep dye drop method; assay type: cell-based; settings: 1 μM for 72 h; 17 cancer and normal cell lines; deep dye drop method (N = 2)
# Protocol: (A) Structure of GW296115. […] Cell lines in the panel were treated with 1 μM GW296115 for 72 h (N = 2) and analyzed using the deep dye drop method. MCF10A and MRC-5 are non-malignant cell lines. […] Coral was used to make (C): https://phanstiel-lab.med.unc.edu/CORAL.
# This compound was further profiled in 17 different cancer and normal cell lines to determine whether it impacted cell growth when treated at 1 μM for 72 h. […] Here we further explore the target engagement characteristics of GW296115 in vitro and in cells and capture its specificity for the CAMK family of kinases.
# [3] = target: T1, NLuc-BRSK2 in HEK293 cells (Homo sapiens, UniProt Q8IWQ3); experiment: BRSK2 NanoBRET cellular target engagement assay; assay type: cell-based; settings: HEK293 cells transiently expressing NLuc-BRSK2; Tracer K5 1 μM; N = 3; read-out: BRSK2 NanoBRET data IC50
# T1 construct: host or cells: HEK293
# T1 sequence (Q8IWQ3 1-736): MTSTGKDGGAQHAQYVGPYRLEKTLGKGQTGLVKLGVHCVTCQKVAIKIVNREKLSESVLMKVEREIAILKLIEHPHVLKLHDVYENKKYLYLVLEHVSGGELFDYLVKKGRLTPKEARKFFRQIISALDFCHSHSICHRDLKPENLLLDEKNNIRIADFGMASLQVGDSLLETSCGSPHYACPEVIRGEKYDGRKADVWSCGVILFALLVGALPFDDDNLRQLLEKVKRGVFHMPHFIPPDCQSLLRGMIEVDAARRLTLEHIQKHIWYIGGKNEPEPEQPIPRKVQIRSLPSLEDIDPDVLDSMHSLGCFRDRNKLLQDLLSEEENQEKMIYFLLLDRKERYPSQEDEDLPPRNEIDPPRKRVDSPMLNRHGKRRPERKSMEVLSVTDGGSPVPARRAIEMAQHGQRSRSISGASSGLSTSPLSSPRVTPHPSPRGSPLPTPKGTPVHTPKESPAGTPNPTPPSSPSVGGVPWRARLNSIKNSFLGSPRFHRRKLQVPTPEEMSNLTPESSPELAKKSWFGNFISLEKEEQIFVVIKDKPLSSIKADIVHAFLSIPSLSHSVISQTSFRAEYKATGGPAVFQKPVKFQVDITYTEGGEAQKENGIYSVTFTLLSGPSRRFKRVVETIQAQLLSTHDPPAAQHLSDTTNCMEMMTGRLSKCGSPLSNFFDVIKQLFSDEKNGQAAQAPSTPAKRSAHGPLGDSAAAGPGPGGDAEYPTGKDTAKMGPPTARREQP
# Protocol: Our interest in illuminating BRSK2 biology motivated further investigation of the cellular target engagement of BRSK2 by GW296115 using our NanoBRET assay. BRSK2 kinase was fused to 19-kDa luciferase (NLuc) at its N-terminus (NLuc–BRSK2) which was transiently expressed in HEK293 cells, and then incubated with a cell-permeable fluorescent energy transfer probe (tracer)[23].
# NanoBRET assays were executed as described previously. Constructs for BRSK2 NanoBRET measurements were provided in kind by Promega. The N-terminal Nanoluciferase (NL)/BRSK2 fusion (NL-BRSK2) was encoded in pFN32K expression vector, including flexible Gly-Ser-Ser-Gly linkers between NL and BRSK2 (Promega). For cellular BRSK2 NanoBRET target engagement experiments, a 10 μg/mL solution of DNA in Opti-MEM without serum (Gibco) was prepared with 9 μg/mL of Carrier DNA (Promega) and 1 μg/mL of NL-BRSK2 to achieve a total volume of 1.05 mL. To this solution was then added 31.5 μL of FuGENE HD (Promega) to form a lipid:DNA complex, mixed by inversion 8 times, and incubated at room temperature for 20 min. The resulting transfection complex (1.082 mL) was next gently mixed with HEK293 cells (21 mL) suspended at a density of 2 × 10^5 cells/mL in DMEM containing 10% FBS.
# After 24 h, media was removed via aspiration and 85 μL of room temperature Opti-MEM without phenol red (Gibco) was added to each well. […] Next, 5 μL (20 × working stock of NanoBRET Tracer K5 [20 μM] in Tracer Dilution Buffer (Promega N291B)) was added to each well with the exception of the “no tracer” control wells. Test compounds were prepared as concentrated stock solutions in 100% DMSO (Sigma) at a concentration of 10 mM. […] A volume of 10 μL of tenfold test compound stock solutions (final assay concentration of […]) was added to each well. For “no compound” and “no tracer” control wells, 10 μL of Opti-MEM plus DMSO (9 μL Opti-MEM plus 1 μL DMSO) was added to each well to achieve a final concentration of 1% DMSO.
# After 2 h, plates were returned to room temperature over the course of 15 min. […] Next, 50 μL of the 3 × substrate/extracellular NL inhibitor stock was added to each well.
# Test compounds were evaluated at 8 concentrations in competition with NanoBRET Tracer K5 in HEK293 cells transiently expressing the NL-BRSK2 fusion protein. Raw milliBRET (mBRET) values were obtained by dividing the acceptor emission values (600 nm) by the donor emission values (450 nm), and then multiplying by 1000. Averaged control values were used to represent complete inhibition (no tracer control: transfected cells in Opti-MEM + DMSO; tracer control: transfected cells in Opti-MEM + DMSO + Tracer K5 only), and were plotted alongside the raw mBRET values. The data with n = 3 biological replicates was first normalized and then fit using Sigmoidal, 4PL binding curve in Prism Software (version 8, GraphPad, La Jolla, CA, USA).
# [4] = target: STK33 (Homo sapiens, UniProt Q9BYT3); design: purchased Eurofins; method as in earlier work; settings: cited from earlier work
# Chain of STK33 (Q9BYT3 whole entry): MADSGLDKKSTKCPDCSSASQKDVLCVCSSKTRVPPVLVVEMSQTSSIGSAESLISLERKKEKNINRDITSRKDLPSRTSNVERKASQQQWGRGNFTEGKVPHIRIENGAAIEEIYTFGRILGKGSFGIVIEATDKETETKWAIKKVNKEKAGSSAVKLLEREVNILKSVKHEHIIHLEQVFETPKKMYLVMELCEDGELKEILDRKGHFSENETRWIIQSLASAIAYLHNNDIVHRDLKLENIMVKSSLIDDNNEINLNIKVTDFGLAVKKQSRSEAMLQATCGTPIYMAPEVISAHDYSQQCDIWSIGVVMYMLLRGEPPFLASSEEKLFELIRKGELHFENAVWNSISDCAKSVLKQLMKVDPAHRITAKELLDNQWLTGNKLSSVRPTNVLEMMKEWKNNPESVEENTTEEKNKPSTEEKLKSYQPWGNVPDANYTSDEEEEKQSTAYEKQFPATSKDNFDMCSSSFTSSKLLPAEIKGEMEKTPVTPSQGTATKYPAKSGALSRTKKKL
structure (smiles),measurement,setting,value
COc1ccc2[nH]c3c4[nH]c5ccc(OC)cc5c4c4c(c3c2c1)C(=O)NC4=O [GW296115],Nanosyn % Inhibition at 1 μM,[1],84%
same,effect on cell growth,[2],did not impact cell growth
same,IC50,[3],0.107 ± 0.028 µM
same,TSA ΔTm at 10 μM (°C),[4],9.8 °C
